Data published in patent US20060100431A1, “Biologically active compounds” (Amura Therapeutics Limited, priority 2002, published 2006).

Tests used:
[1] = target: Wild-type cruzipain (Trypanosoma cruzi, UniProt P25779); test: Trypanosoma cruzi cruzipain peptidase activity assay (Ki); format: biochemical; conditions: read-out: Ki, inhibitors of cruzain and cruzipains
Outline: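 Native cruzipain from T. cruzi Dm28 epimastigotes, 2.5 nM, in 100 mM sodium phosphate pH 6.75 with 1 mM EDTA and 10 mM L-cysteine, 25 °C, DMSO <1%. Rates taken from continuous fluorogenic substrate read; Ki by regression assuming reversible pure-competitive inhibition.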

[2] = target: T1, CPB2.8ΔCTE (Leishmania mexicana, UniProt P36400); test: Leishmania mexicana cysteine protease B (CPB) peptidase activity assay (Ki); format: biochemical; conditions: Ki, inhibitors of Leismania mexicana CPB protease
T1 construct: Wild-type recombinant CPB without the C-terminal extention (i.e. CPB2.8ΔCTE); Dr. Jeremy Mottram (Wellcome Centre for Molecular Parasitology, University of Glasgow)
T1 sequence (P36400 126-343, stated change not applied): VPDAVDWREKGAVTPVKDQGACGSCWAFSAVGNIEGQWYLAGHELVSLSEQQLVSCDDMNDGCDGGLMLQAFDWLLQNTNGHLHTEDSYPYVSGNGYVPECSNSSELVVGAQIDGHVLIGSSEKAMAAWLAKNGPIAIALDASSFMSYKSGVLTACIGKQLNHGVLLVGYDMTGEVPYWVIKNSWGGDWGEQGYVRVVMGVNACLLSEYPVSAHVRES
Description: Unless otherwise stated, all general chemicals and biochemicals were purchased from either the Sigma Chemical Company, Poole, Dorset, U.K or from Fisher Scientific UK, Loughborough, Leicestershire, U.K. Absorbance assays were carried out in flat-bottomed 96-well plates (Spectra; Greiner Bio-One Ltd., Stonehouse, Gloucestershire, U.K.) using a SpectraMax PLUS384 plate reader (Molecular Devices, Crawley, U.K.). Fluorescence high throughput assays were carried out in either 384-well microtitre plates (Corning Costar 3705 plates, Fisher Scientific) or 96-well ‘U’ bottomed Microfluor W1 microtitre plates (Thermo Labsystems, Ashford, Middlesex, U.K.). Fluorescence assays were monitored using a SpectraMax Gemini fluorescence plate reader (Molecular Devices). For substrates employing either a 7-amino-4-methylcoumarin (AMC) or a 7-amino-4-trifluoromethylcoumarin (AFC) fluorophore, assays were monitored at an excitation wavelength of 365 nm and an emission wavelength of 450 nm and the fluorescence plate reader calibrated with AMC. For substrates employing a 3-amino-benzoyl (Abz) fluorophore, assays were monitored at an excitation wavelength of 310 nm and an emission wavelength of 445 nm; the fluorescence plate reader calibrated with 3-amino-benzamide (Fluka). Unless otherwise indicated, all the peptidase substrates were purchased from Bachem UK, St Helens, Merseyside, UK. Substrates utilizing fluorescence resonance energy transfer methodology (i.e. FRET-based substrates) were synthesized at Incenta Limited using published methods (Atherton & Sheppard, Solid Phase Peptide Synthesis, IRL Press, Oxford, U.K, 1989) and employed Abz (2-aminobenzoyl) as the fluorescence donor and 3-nitro-tyrosine [Tyr(NO2)] as the fluorescence quencher (Meldal, M. and Breddam, K., Anal. Biochem, 195, 141-147, 1991). Hydroxyethylpiperazine ethanesulfonate (HEPES), tris-hydroxylmethyl aminomethane (tris) base, bis-tris-propane and all the biological detergents (e.g. CHAPS, zwittergents, etc.) were purchased from CN Biosciences UK, Beeston, Nottinghamshire, U.K. Glycerol was purchased from Amersham Pharmacia Biotech, Little Chalfont, Buckinghamshire, U.K. Stock solutions of substrate or inhibitor were made up to 10 mM in 100% dimethylsulfoxide (DMSO) (Rathburns, Glasgow, U.K.) and diluted as appropriately required. In all cases the DMSO concentration in the assays was maintained at less than 1% (vol./vol.).
Assay protocols were based on literature precedent (Table 4; Barrett, A. J., Rawlings, N. D. and Woessner, J. F., 1998, Handbook of Proteolytic Enzymes, Academic Press, London and references therein) and modified as required to suit local assay protocols. Enzyme was added as required to initiate the reaction and the activity, as judged by the change in fluorescence upon conversion of substrate to product, was monitored over time. All assays were carried out at 25±1° C.
Wild-type recombinant CPB without the C-terminal extention (i.e. CPB2.8ΔCTE; Sanderson, S. J., et. al., Biochem. J., 347, 383-388, 2000) was obtained from Dr. Jeremy Mottram (Wellcome Centre for Molecular Parasitology, The Anderson College, University of Glasgow, Glasgow, U.K.). Activity assays were carried out in 100 mM sodium acetate; pH 5.5 containing 1 mM EDTA; 200 mM NaCl and 10 mM DTT (Alves, L. C., et. al., Mol. Biochem. Parasitol, 116, 1-9, 2001) using 0.25 nM enzyme. […] The rate of conversion of substrate to product was derived from the slope of the increase in fluorescence monitored continuously over time.
The apparent inhibition constant (Ki) for each compound was determined on the basis that inhibition was reversible and occurred by a pure-competitive mechanism. The Ki values were calculated, from the dependence of enzyme activity as a function of inhibitor concentration, by direct regression analysis (Prism v 3.02) using Equation 2 (Cornish-Bowden, A., 1995.). [formula]

Wild-type cruzipain, sequence (P25779 whole entry): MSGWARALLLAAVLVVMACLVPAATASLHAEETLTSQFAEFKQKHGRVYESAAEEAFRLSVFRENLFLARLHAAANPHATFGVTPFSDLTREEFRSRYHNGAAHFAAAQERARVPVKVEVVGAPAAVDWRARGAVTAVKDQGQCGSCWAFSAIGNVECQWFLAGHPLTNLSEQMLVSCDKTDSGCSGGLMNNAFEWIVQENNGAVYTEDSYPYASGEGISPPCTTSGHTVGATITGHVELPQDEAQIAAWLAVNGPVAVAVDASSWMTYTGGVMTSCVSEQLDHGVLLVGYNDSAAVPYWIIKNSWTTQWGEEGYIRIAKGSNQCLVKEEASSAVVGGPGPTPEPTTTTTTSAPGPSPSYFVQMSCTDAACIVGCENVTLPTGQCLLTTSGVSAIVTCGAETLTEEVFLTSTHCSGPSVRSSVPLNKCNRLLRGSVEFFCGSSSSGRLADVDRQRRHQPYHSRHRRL

CC(C)C[C@H](NC(=O)c1ccc(N(C)C)cc1)C(=O)N1CC[C@@H]2[C@H]1C(=O)CN2C(=O)[C@H](CO)NC(=O)OCc1ccccc1 [Example 147, (3aS,6aR)-((1S)-2-{4-[(2S)-2-(4-Dimethylamino-benzoylamino)-4-methyl-pentanoyl]-3-oxo-hexahydro-pyrrolo[3,2-b]pyrrole-1-yl}-1-hydroxymethyl-2-oxo-ethyl)-carbamic acid benzyl ester]
Ki [1]: < 5 µM | Ki [2]: < 5 µM

CC(C)C[C@H](NC(=O)c1ccc(-c2ccccc2)s1)C(=O)N1CC[C@@H]2[C@H]1C(=O)CN2C(=O)c1ccccc1 [Example 44, (3aR,6aS)-5-Phenyl-thiophene-2-carboxylic acid [(1S)-1-(4-benzoyl-6-oxo-hexahydro-pyrrolo[3,2-b]pyrrole-1-carbonyl)-3-methyl-butyl]-amide]
Ki [1]: < 5 µM | Ki [2]: < 5 µM

CC(C)C[C@H](NC(=O)c1ccc(N(C)C)cc1)C(=O)N1CC[C@@H]2[C@H]1C(=O)CN2C(=O)[C@@H](N)[C@H](C)O [Example 208, (3aR,6aS)-N-{(1S)-1-[4-((2S,3S)-2-Amino-3-hydroxy-butyryl)-6-oxo-hexahydro-pyrrolo[3,2-b]pyrrole-1-carbonyl]-3-methyl-butyl}-4-dimethylamino-benzamide]
Ki [1]: < 5 µM | Ki [2]: < 5 µM

NCc1ccc(C(=O)N[C@@H](Cc2ccc(O)cc2)C(=O)N2CC[C@@H]3[C@H]2C(=O)CN3C(=O)c2ccccc2)cc1 [Example 318]
Ki [1]: < 5 µM | Ki [2]: < 5 µM

COc1ccccc1C(=O)N1CC(=O)[C@@H]2[C@H]1CCN2C(=O)[C@H](CC(C)C)NC(=O)c1ccc(N(C)C)cc1 [Example 64, (3aR,6aS)-4-Dimethylamino-N-{(1S)-1-[4-(2-methoxy-benzoyl)-6-oxo-hexahydro-pyrrolo[3,2-b]pyrrole-1-carbonyl]-3-methyl-butyl}-benzamide]
Ki [1]: < 5 µM | Ki [2]: < 5 µM

CC(C)C[C@H](NC(=O)c1ccc(C(C)(C)C)cc1)C(=O)N1CC[C@@H]2[C@H]1C(=O)CN2C(=O)c1cccc(Oc2ccccc2)c1 [Example 24, (3aR,6aS)-4-tert-Butyl-N-{(1S)-3-methyl-1-[6-oxo-4-(3-phenoxy-benzoyl)-hexahydro-pyrrolo[3,2-b]pyrrole-1-carbonyl]-butyl}-benzamide]
Ki [1]: < 5 µM | Ki [2]: < 5 µM

Cc1cc(C(=O)N2CC(=O)[C@@H]3[C@H]2CCN3C(=O)[C@H](CC(C)C)NC(=O)c2ccc(N(C)C)cc2)ccc1F [Example 115, (3aR,6aS)-4-Dimethylamino-N-{(1S)-1-[4-(4-fluoro-3-methyl-benzoyl)-6-oxo-hexahydro-pyrrolo[3,2-b]pyrrole-1-carbonyl]-3-methyl-butyl}-benzamide]
Ki [1]: < 5 µM | Ki [2]: < 5 µM

CS(=O)(=O)c1ccccc1C(=O)N1CC(=O)[C@@H]2[C@H]1CCN2C(=O)[C@H](Cc1ccc(O)cc1)NC(=O)c1cccc(CN)c1 [Example 332, (3aR,6aS)-3-Aminomethyl-N-{(1S)-1-(4-hydroxy-benzyl)-2-[4-(2-methanesulfonyl-benzoyl)-6-oxo-hexahydro-pyrrolo[3,2-b]pyrrole-1-yl]-2-oxo-ethyl}-benzamide]
Ki [1]: < 5 µM | Ki [2]: < 5 µM

CC(C)C[C@H](NC(=O)c1ccc(N(C)C)cc1)C(=O)N1CC[C@@H]2[C@H]1C(=O)CN2C(=O)C1CC=CCC1 (stereo partly drawn) [Example 138, (3aR,6aS)-N-{(1S)-1-[4-(Cyclohex-3-enecarbonyl)-6-oxo-hexahydro-pyrrolo[3,2-b]pyrrole-1-carbonyl]-3-methyl-butyl}-4-dimethylamino-benzamide]
Ki [1]: < 5 µM | Ki [2]: < 5 µM

NCc1cccc(C(=O)N[C@@H](Cc2ccc(O)cc2)C(=O)N2CC[C@@H]3[C@H]2C(=O)CN3C(=O)c2ccccc2)c1 [Example 319, (3aR,6aS)-3-Aminomethyl-N-[(1S)-2-(4-benzoyl-6-oxo-hexahydro-pyrrolo[3,2-b]pyrrole-1-yl)-1-(4-hydroxy-benzyl)-2-oxo-ethyl]-benzamide]
Ki [1]: < 5 µM | Ki [2]: < 5 µM

Cc1ccc(C(=O)N2CC(=O)[C@@H]3[C@H]2CCN3C(=O)[C@H](CC(C)C)NC(=O)c2ccc(N(C)C)cc2)cc1C [Example 114, (3aR,6aS)-4-Dimethylamino-N-{(1S)-1-[4-(3,4-dimethyl-benzoyl)-6-oxo-hexahydro-pyrrolo[3,2-b]pyrrole-1-carbonyl]-3-methyl-butyl}-benzamide]
Ki [1]: < 5 µM | Ki [2]: < 5 µM

CC(C)C[C@H](NC(=O)c1ccc(C(C)(C)C)cc1)C(=O)N1CC[C@@H]2[C@H]1C(=O)CN2C(=O)[C@@H](N)CC(C)C [Example 192, (3aR,6aS)-N-{(1S)-1-[4-((2S)-2-Amino-4-methyl-pentanoyl)-6-oxo-hexahydro-pyrrolo[3,2-b]pyrrole-1-carbonyl]-3-methyl-butyl}-4-tert-butyl-benzamide]
Ki [1]: < 5 µM | Ki [2]: < 5 µM

CC(C)C[C@H](NC(=O)c1ccc(N(C)C)cc1)C(=O)N1CC[C@@H]2[C@H]1C(=O)CN2C(=O)[C@@H](N)[C@@H](C)O [Example 207, (3aR,6aS)-N-{(1S)-1-[4-((2S,3R)-2-Amino-3-hydroxy-butyryl)-6-oxo-hexahydro-pyrrolo[3,2-b]pyrrole-1-carbonyl]-3-methyl-butyl}-4-dimethylamino-benzamide]
Ki [1]: < 5 µM | Ki [2]: < 5 µM

CC(C)C[C@H](NC(=O)c1ccc(N(C)C)cc1)C(=O)N1CC[C@@H]2[C@H]1C(=O)CN2C(=O)CC1CCCCC1 [Example 137, (3aR,6aS)-N-{(1S)-1-[4-(2-Cyclohexyl-acetyl)-6-oxo-hexahydro-pyrrolo[3,2-b]pyrrole-1-carbonyl]-3-methyl-butyl}-4-dimethylamino-benzamide]
Ki [1]: < 5 µM | Ki [2]: < 5 µM

CC(C)C[C@H](NC(=O)c1ccc(N(C)C)cc1)C(=O)N1CC[C@@H]2[C@H]1C(=O)CN2C(=O)c1cc2ccccc2s1 [Example 100, (3aR,6aS)-N-{(1S)-1-[4-(Benzo[b]thiophene-2-carbonyl)-6-oxo-hexahydro-pyrrolo[3,2-b]pyrrole-1-carbonyl)-3-methyl-butyl}-4-dimethylamino-benzamide]
Ki [1]: < 5 µM | Ki [2]: < 5 µM

CC(=O)N[C@@H](CC(C)C)C(=O)N1CC(=O)[C@@H]2[C@H]1CCN2C(=O)[C@H](Cc1ccc(O)cc1)NC(=O)c1cccc(Br)c1 [Example 345, (3aR,6aS)-N-[(1S)-2-[4-((2S)-2-Acetylamino-4-methyl-pentanoyl)-6-oxo-hexahydro-pyrrolo[3,2-b]pyrrol-1-yl]-1-(4-hydroxy-benzyl)-2-oxo-ethyl]-3-bromo-benzamide]
Ki [1]: < 5 µM | Ki [2]: < 5 µM

CC(C)C[C@H](NC(=O)c1ccc(N(C)C)cc1)C(=O)N1CC[C@@H]2[C@H]1C(=O)CN2C(=O)c1cccs1 [Example 95, (3aR,6aS)-4-Dimethylamino-N-{(1S)-3-methyl-1-[6-oxo-4-(thiophene-2-carbonyl)-hexahydro-pyrrolo[3,2-b]pyrrole-1-carbonyl]-butyl}-benzamide]
Ki [1]: < 5 µM | Ki [2]: < 5 µM

CC(C)C[C@H](NC(=O)c1ccc(N(C)C)cc1)C(=O)N1CC[C@@H]2[C@H]1C(=O)CN2C(=O)c1ccccc1Cl [Example 72, (3aR,6aS)-N-{(1S)-1-[4-(2-Chloro-benzoyl)-6-oxo-hexahydro-pyrrolo[3,2-b]pyrrole-1-carbonyl)-3-methyl-butyl}-4-dimethylamino-benzamide]
Ki [1]: < 5 µM | Ki [2]: < 5 µM
